According to patent EP0170024A2, “Use of 2-acylaminomethyl-1,4-benzodiazepine derivatives for the production of pharmaceutical compositions and process for the preparation for pharmaceutical compositions” (priority 1984, dated 1986):
Read-outs that look alike come from different tables or passages of the source.

Tests used:
CCK receptor (pancreas) = target: T1, CCK receptor (pancreas) (Rattus norvegicus, UniProt P30551); assay: CCK receptor binding (pancreas), 125I-CCK-33 receptor binding assay; conditions: for IC50: inhibition of 50% of the 125I-CCK binding, rat pancreas membranes, 37°C, 30 minutes
T1 construct: The whole pancreas of a male Sprague-Dawley rat (200-350 g), which had been sacrificed by decapitation, was dissected free of fat tissue and homogenized; from tissue; host or cells: rat pancreas membrane homogenate
T1 sequence (P30551 1-444): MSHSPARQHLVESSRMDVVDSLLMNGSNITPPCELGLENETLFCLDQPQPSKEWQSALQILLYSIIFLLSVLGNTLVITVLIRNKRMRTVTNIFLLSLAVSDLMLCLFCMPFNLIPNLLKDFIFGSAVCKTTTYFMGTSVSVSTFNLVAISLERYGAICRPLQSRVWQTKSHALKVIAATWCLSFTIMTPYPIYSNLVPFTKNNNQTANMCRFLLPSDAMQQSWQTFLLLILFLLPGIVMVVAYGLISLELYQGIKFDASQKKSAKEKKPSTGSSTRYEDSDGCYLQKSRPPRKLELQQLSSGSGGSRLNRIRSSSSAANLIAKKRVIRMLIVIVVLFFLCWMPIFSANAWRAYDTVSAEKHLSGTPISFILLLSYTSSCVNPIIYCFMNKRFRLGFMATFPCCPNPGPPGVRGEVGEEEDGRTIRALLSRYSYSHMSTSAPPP
From the text: Screening of these known compounds to determine biological activity and obtain an IC50 value for them to identify significant CCK-antagonism may be accomplished using an 125I-CCK receptor binding assay and in vitro isolated tissue preparations. These tests involve the following: • CCK receptor binding (pancreas) method
CCK-33 was radiolabeled with ^125I-Bolton Hunter reagent (2000 Ci/mmole), as described by Sankara et al. (J. Biol. Chem., 254, 9349-9351, 1979).
The whole pancreas of a male Sprague-Dawley rat (200-350 g), which had been sacrificed by decapitation, was dissected free of fat tissue and homogenized in 20 volumes of ice-cold 50 mM Tris HC1 (pH 7.7 at 25°C) with a Brinkmann Polytron PT-10. The homogenates were centrifuged at 48,000g for 10 minutes, then the resulting pellets were resuspended in Tris Buffer, centrifuged as above, and resuspended in 200 volumes of binding assay buffer (50 mM Tris HC1, pH 7.7 at 25°C, 5 mM dithiothreitol, 0.1 mM bacitracin, 1.2 mM phenylmethane sulfonyl fluoride and 0.5 mM o-phenanthroline).
All assays were run in duplicate or triplicate, and the reaction mixtures were incubated at 37°C for 30 minutes and centrifuged in a Beckman Microfuge (4 minutes) immediately after adding 1 ml of ice-cold incubation buffer. The supernatant was aspirated and discarded, and the pellets were counted with a Beckman gamma 5000.

[1] = tested on: CCK-8 response in guinea pig gall bladder; assay: Isolated guinea pig gall bladder, CCK-8 contractile response; conditions: compound at 2 uM, added at least 5 minutes before CCK-8
Description: Isolated guinea pig gall bladder method
The two halves of the gall bladders, free of adjacent tissue, of male Hartley guinea pigs (400-600 q), which had been sacrificed by ? were suspended under 1 g tension along the axis of the bile duct in 5 ml organ bath, containing a Kreb's bicarbonate solution of 118 mM NaCl, 4.75 mM KC1, 2.54 CaCl2, 1.19 mM KH2PO4, 1.2 mM MgS04, 25 mM NaHC03 and 11 mM dextrose, which is maintained at 32°C and bubbled with a mixture of 95% 02 and 5% C02. The tissues were washed every 10 minutes for 1 hour to obtain equilibrium prior to the beginning of the study and the isometric contractions of the strips were recorded using Statham (60 g:0.12 mm) strain gauges and a Hewlett-Packard 77588 recorder.
CCK-8 was added cumulatively to the baths and the EC50's were determined using regression analysis. After washout (every 10 minutes-for 1 hour), the compound to be tested was added at least 5 minutes before the addition of CCK-8 and the EC50 of CCK-8 in the presence of the compound to be tested was also simillarly determined.

[2] = read-out: IC50 (µM) CCK Pancreas

`CN1c2ccccc2C(c2ccccc2F)=NCC1CNC(=O)c1ccc(Cl)cc1` (stereo not drawn) [Compound 3, l-methyl-2-(4'-chlorophenylcarbonyl) aminomethyl-5-(2'-fluorophenyl)-3H-2,3-dihydro-1,4-benzodiazepine] gave an IC50 (CCK receptor (pancreas); [2]) of 0.8 µM.

Compound `CN1c2ccccc2C(c2ccccc2F)=NCC1CNC(=O)c1ccccc1F` (stereo not drawn) [Compound 4, l-methyl-2-(2-fluorophenyl-carbonyl)aminomethyl-5-(2'-fluorophenyl)-lH-2,3-dihydro-1,4-benzodiazepine] has an IC50 (CCK receptor (pancreas); [2]) of 2.9 µM.

Work on `CN1c2ccccc2C(c2ccccc2F)=NCC1CNC(=O)c1ccsc1` (single isomer, unassigned; (-)) [Compound 1, (-)-1-methyl-2-(thiophene-3-carbonyl)aminomethyl-5-(2'-fluorophenyl)-1H-2,3-dihydro-1,4-benzodiazepine] yielded an IC50 (CCK receptor (pancreas); IC50 (µM) CCK Pancreas) of 0.1 µM.

For `CN1c2ccccc2C(c2ccccc2F)=NCC1CN1C(=O)c2ccccc2C1=O` (stereo not drawn) [Compound 5, [(1-methyl-5-(2'-fluorophenyl)-lH-l,4-benzopin-2-yl)methyl]-lH-isoindole-1,3-(2H)-dione], the IC50 (CCK receptor (pancreas); [2]) was 4.3 µM.

For `CN1c2ccccc2C(c2ccccc2F)=NCC1CNC(=O)c1ccsc1` (single isomer, unassigned; (+)) [Compound 6, (+)-1-methyl-2-(thiophene-3-carbonyl)aminomethyl-5-(2-fluorophenyl)-lH-2,3-dihydro-1,4-benzodiazepine], the IC50 (CCK receptor (pancreas); IC50 (µM) CCK Pancreas) was 13.9 µM.

`CN1c2ccccc2C(c2ccccc2F)=NCC1CNC(=O)c1cccnc1` (stereo not drawn) [Compound 7, 1-methyl-2-(pyridine-3-carbonyl)aminomethyl-5-(2'-fluorophenyl)-1H-2,3-dihydro-1,4-benzodiazepine] was tested, and the IC50 (CCK receptor (pancreas); [2]) was 10 µM.

For `CN1c2ccccc2C(c2ccccc2F)=NCC1CNC(=O)c1ccsc1` (racemic) [Compound 2, (±)-1-methyl-2-(thiophene-3-carbonyl) aminomethyl-5-(2'-fluorophenyl)-2,3-dihydro-l,4-benzodiazepine], the IC50 (CCK receptor (pancreas); IC50 (µM) CCK Pancreas) was 0.2 µM, the “mechanism of inhibition of specific 125I-CCK-33 receptor binding (Scatchard analysis)” value (CCK receptor (pancreas); absence and presence of 0.2 µM of compound, increased the KD without affecting the Bmax) was “competitively inhibited specific ^125I-CCK-33 receptor binding” and the “effect on CCK dose response curve” value [1] was “parallel shift to the right of the CCK dose response curve without reduction of the maximal contractile response”.
